# Laboratory results: PMC7613515, “Reading and erasing of the phosphonium analogue of trimethyllysine by epigenetic proteins” (Communications Chemistry, 2022)
# How the values were obtained:
# [1] = cited from earlier work
# Source text: Some JmjC KDMs can also catalyse N-methyl arginine demethylation and with appropriately sized N^ε-substitutions some can catalyse forma ...
# [2] = target: T1, KDM4ATTD (JMJD2A, Q897-P1011) (Homo sapiens, UniProt O75164); assay: ITC, association of histone H3 peptides with KDM4ATTD; type: binding
# T1 construct: KDM4ATTD (JMJD2A, Q897-P1011); made in house; host or cells: E. coli
# T1 sequence (O75164 897-1011): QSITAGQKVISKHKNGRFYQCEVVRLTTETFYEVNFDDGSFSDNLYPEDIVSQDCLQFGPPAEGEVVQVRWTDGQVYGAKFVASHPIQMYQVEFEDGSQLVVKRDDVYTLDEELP
# Source text: We investigated the thermodynamics of association of the H3KP4me3 peptide with five representative human reader domains containing either a PHD zinc finger or TTD, i.e. KDM5APHD3 (JARID1A-PHD3, residues M1489–V1641)[10], TAF3PHD (R857–K924)[22], BPTFPHD (L2583–N2751)[23], SGF29TTD (R115–K293)[24] and KDM4ATTD (JMJD2A, Q897-P1011)[25], selected on the basis of their preference for binding Ν^ε-trimethyllysine over other (non)methylation marks (Kme0 < Kme1 < Kme2 < Kme3), and their domain and aromatic cage diversity. The recombinant readers were produced in E. coli following reported procedures. Isothermal titration calorimetric (ITC) analyses were used to determine the dissociation constant (Kd), the Gibbs free energy of binding (ΔG°), the enthalpy of binding (ΔH°), and the entropy of binding (ΔS°). […] (Table 1, Fig. 2, Supplementary Fig. 1).
# The following purified reader domains: TAF3PHD (R857-K924), KDM5APHD3 (JARID1A, M1489-V1641), BPTFPHD (L2583-N2751), KDM4ATTD (JMJD2A, Q897-P1011) and SGF29TTD (R115-K293) were prepared as reported[10],[22]–[26]. The histone lysine demethylase were produced and purified to high purity via reported procedures KDM3A (JMJD1A, T515-S1317)[41], KDM4AJmjC[39] (JMJD2A, M1-L359), KDM4EJmjC (JMJD2E, M1–Q337)[34] and KDM7B[40] (PHF8, M37-N483 [NP_001171]). KDM5DJmjC was produced using an N-terminal hexa-His tagged KDM4D (KDM4DM1-L358) DNA construct, transformed into BL21(DE3) competent cells for recombinant protein production. Colonies were used to inoculate of LB media (50 mL) containing kanamycin (50 µg·mL^−1) and chloramphenicol (34 µg·mL^−1), which was placed in a 37 °C shaker overnight. The starter culture (10 mL) was used to inoculate TB media (6 × 1 L) containing kanamycin (50 µg·mL^−1) in 2 L baffled shaker flasks. After reaching an of OD600 of ~0.8, the temperature was reduced to 18 °C; at OD600 ~0.9 the cells were induced by the IPTG (0.5 mM) addition. After shaking overnight, the culture was centrifuged (5000 rpm, 10 mins), the media was decanted, and the cell pellet was suspended in Lysis Buffer [HEPES (50 mM), NaCl (500 mM), imidazole (20 mM), glycerol (5%) and TCEP (0.5 mM) in water (pH 7.4)]. The suspension was lysed by passaging through a high-pressure cell breaker (Avestin – EmulsiFlex-C5) for three rounds. The lysate was cleared by centrifugation (60 minutes, 36,000 × g, 4 °C), then loaded onto a Ni NTA gravity column. After extensive rinsing of the Ni-NTA gravity column with lysis buffer, the His-tagged protein was eluted in lysis buffer containing 300 mM imidazole. The eluted protein was concentrated and subjected to gel filtration chromatography using an AKTA Xpress system, an S200 16/600 gel filtration column, and GF buffer [HEPES (50 mM), NaCl (150 mM), glycerol (5%) and TCEP (0.5 mM) in water (pH 7.4)]. The protein identity was verified by LC-MS (ESI-TOF) observing a mass of 43759.7 Da, in accord with the predicted mass of 43751.6 Da.
# ITC studies followed a reported procedure. The buffer used corresponded to that used in the final protein purification step. Briefly, TAF3PHD and KDM4ATTD: [Tris (50 mM) in water (pH 7.5)]; KDM5APHD3 and BTPFPHD: [Tris (50 mM), NaCl (20 mM) in water (pH 7.5)]; [Tris (25 mM), NaCl (50 mM), 1,4-dithiothreitol (1.0 mM) in water (pH 7.5)]. Experiments were conducted using ITC200 automated (GE Healthcare Life Sciences, USA) instrument at 25 °C. Histone peptide titrations were performed with the same reader batches. Solutions of the reader in buffer (25–40 µM) and of the histone H3 peptide (350–600 µM) in buffer were prepared. The prepared solutions were plated into a 96-well plate and inserted into the instrument for analysis. Experiments were performed according to manufacturer’s default settings: Plate pre-rinse syringe clean. A total of 19 injections were performed; each experiment was repeated 3–5 times. Heats of dilution for histone peptides determined in control experiments were subtracted from the titration binding data. […]
# [3] = 25 °C, H3 1-10 peptide, Tris (50 mM), pH 7.5, from 3 to 5 experiments, ± SD
Compound,volume difference Δ[^+Pme4-^+Nme4] ([1]; H3KP9me3 compared to H3K9me3) [Å^3],"-TΔS° [2, 3] [kcal/mol]","ΔG° [2, 3] [kcal/mol]","ΔH° [2, 3] [kcal/mol]","fold stronger binding (ΔKd), H3KP4me3 versus H3K4me3 ([2]; KDM4ATTD)","ΔΔH°, H3KP4me3 relative to H3K4me3 ([2]; KDM4ATTD) [kcal/mol]","bond length (C-P or C-N) ([1]; C-P bond in H3KP4me3, C-N bond in H3K4me3) [Å]"
"ARTKQTAR(KPme3)STGGKA [H3KP9me3, histone H3 residues 1–15 with trimethylphosphonium lysine analogue at position 9]",10,–,–,–,–,–,–
C[C@H](N)C(=O)N[C@@H](CCCNC(=N)N)C(=O)N[C@H](C(=O)N[C@@H](CCCC[P+](C)(C)C)C(=O)N[C@@H](CCC(N)=O)C(=O)N[C@H](C(=O)N[C@@H](C)C(=O)N[C@@H](CCCNC(=N)N)C(=O)N[C@@H](CCCCN)C(=O)N[C@@H](CO)C(N)=O)[C@@H](C)O)[C@@H](C)O [H3KP4me3],–,8.8 ± 0.1,-8.9 ± 0.1,-17.7 ± 0.1,~ 12 fold,-4.7,1.87
